Measurements as given in patent US4687769A, “3-(3,3,3-trifluoropropenyl) cephalosporins” (Meiji Seika Kaisha, Ltd., priority 1984, dated 1987).
≈ marks a conversion by molar mass, not a printed value.

Key:
Assay in all cases: Minimum inhibitory concentration (MIC)
Assay type in all cases: cell-based
[1] = system: Staphylococcus aureus 209P JC-1; details: read-out: Minimum inhibitory concentrations (MIC)
Description: (§1) The cephem compounds (I) of this invention and the salts or ester thereof are all novel compounds which are useful as antibacterial agent. To illustrate the utility of the new compound of this invention, we have determined and show below the minimum inhibitory concentrations of some representative examples of the new cephem compounds of this invention against growth of various bacteria in Table 1.

[2] = system: Salmonella typhimurium LT-2; details: Salmonella enterica, read-out: Minimum inhibitory concentrations (MIC)
Description: as §1

[3] = system: Proteus rettgeri GN-624; details: Providencia rettgeri, GN624, read-out: Minimum inhibitory concentrations (MIC)
Description: as §1

[4] = system: Serratia marcescens No. 1; details: read-out: Minimum inhibitory concentrations (MIC)
Description: as §1

[5] = system: Pseudomonas cepacia M-0527; details: Burkholderia cepacia, M0527, read-out: Minimum inhibitory concentrations (MIC)
Description: as §1

[6] = system: Proteus mirabilis GN-79; details: GN79, read-out: Minimum inhibitory concentrations (MIC)
Description: as §1

[7] = system: Escherichia coli NIHJ JC-2; details: NIHJJC2, read-out: Minimum inhibitory concentrations (MIC)
Description: as §1

[8] = system: Staphylococcus aureus Smith; details: read-out: Minimum inhibitory concentrations (MIC)
Description: as §1

[9] = system: Klebsiella pneumoniae PCI-602; details: PCI602, read-out: Minimum inhibitory concentrations (MIC)
Description: as §1

[10] = system: Proteus vulgaris GN-76; details: GN76, read-out: Minimum inhibitory concentrations (MIC)
Description: as §1

MIC [1] | MIC [2] | MIC [3] | MIC [4] | MIC [5] | MIC [6] | MIC [7] | MIC [8] | MIC [9] | MIC [10] | SMILES
0.39 µg/mL (≈ 0.817 µM) | 0.2 µg/mL (≈ 0.419 µM) | 1.56 µg/mL (≈ 3.27 µM) | 0.39 µg/mL (≈ 0.817 µM) | 6.25 µg/mL (≈ 13.1 µM) | 0.39 µg/mL (≈ 0.817 µM) | 0.39 µg/mL (≈ 0.817 µM) | 0.78 µg/mL (≈ 1.63 µM) | 0.39 µg/mL (≈ 0.817 µM) | 0.2 µg/mL (≈ 0.419 µM) | CO/N=C(\C(=O)NC1C(=O)N2C(C(=O)O)=C(/C=C/C(F)(F)F)CSC12)c1csc(N)n1 (stereo not drawn) [Compound (B), 7-[2-methoxyimino-2-(2-aminothiazol-4-yl)acetamido]-3-(3,3,3-trifluoropropenyl)-3-cephem-4-carboxylic acid (syn-isomer, trans-isomer)]
0.2 µg/mL (≈ 0.419 µM) | 0.39 µg/mL (≈ 0.817 µM) | 3.13 µg/mL (≈ 6.56 µM) | 0.2 µg/mL (≈ 0.419 µM) | 6.25 µg/mL (≈ 13.1 µM) | 0.39 µg/mL (≈ 0.817 µM) | 0.78 µg/mL (≈ 1.63 µM) | 0.39 µg/mL (≈ 0.817 µM) | 0.39 µg/mL (≈ 0.817 µM) | 0.2 µg/mL (≈ 0.419 µM) | CO/N=C(\C(=O)NC1C(=O)N2C(C(=O)O)=C(/C=C\C(F)(F)F)CSC12)c1csc(N)n1 (stereo not drawn) [Compound (A), 7-[2-methoxyimino-2-(2-aminothiazol-4-yl)acetamido]-3-(3,3,3-trifluoropropenyl)-3-cephem-4-carboxylic acid (syn-isomer, cis-isomer)]
